Columns and labels:
[1] = tested on: peripheral blood lymphocytes; conditions: oral administration; cited from earlier work
[2] = tested on: chronic plaque psoriasis; relapsing-remitting multiple sclerosis; conditions: patients with moderate to severe chronic plaque psoriasis and patients with relapsing-remitting multiple sclerosis; cited from earlier work
[3] = tested on: cytokines (TNFα, IL-6, IFNg, and IL17) in blood; assay: T cell transfer adoptive model of colitis, cytokine levels in blood (V-PLEX proinflammatory panel); assay type: in vivo, C57BL/6NRj-Rag2^tm1Ciphe/Rj mice; conditions: day 55; oral daily; ABX464 100 mg/kg, etrasimod 3 mg/kg, ozanimod 1.5 mg/kg, alone or combined
Experimental: (§1) 8-week-old male C57BL/6 mice and 6-week-old male C57BL/6NRj-Rag2^tm1Ciphe/Rj mice were purchased from Janvier Labs and housed in accordance with French and European regulations. The colony is maintained at 21±1° C., 50±5% humidity and under an alternating 12/12-hours light/dark cycle (light at 6:00 AM). Standard food and water were given ad libitum. Animals were allowed to acclimate to the animal facility at least 10 days prior to conducting the study.
Spleens were dissected from C57BL/6 male donor mice and placed in a PBS+2% FBS buffer. Single-cell suspension was generated with Gentle Macs Dissociator followed by mashing cells through 40-μm nylon mesh strainers. Cells were pelleted and suspended in ACK lysis buffer for 5 minutes at RT (room temperature) followed by the addition of cold PBS+2% FBS buffer. CD4+ T cells were enriched by negative selection using a CD4+ T-cell isolation kit (Miltenyi) and LS magnetic columns. The flow through was collected, and cells were centrifuged and resuspended in PBS+2% FBS buffer. Antibodies (CD45RB-PE; CD4 FITC) were added and incubated on ice for 30 minutes protected from light. Cells were washed with buffer, centrifuged, resuspended and sorted using BD FACSAria™ Fusion Flow Cytometer. CD4+CD45high and CD4+CD45low cells were sorted, centrifuged and resuspended in sterile PBS. A total of 5×10^5 cells CD4+CD45high or CD4+CD45low were intraperitoneally injected to 6-week-old male C57BL/6NRj-Rag2^tm1Ciphe/Rj mice. The group “high” (injected with CD4+CD45high) represents the […] and the group “low” (injected with CD4+CD45low) represents the […].
Rag2^tm1Ciphe/Rj mice injected with CD4+CD45high or CD4+CD45low (controls) were orally dosed daily (10 ml/kg) beginning on the day of the transfer (1 h before the cell transfer at Day 0) until day 55 with vehicle (0.5% methylcellulose) and Rag2^tm1Ciphe/Rj mice injected with CD4+CD45high were orally dosed daily with one of the following 8-Chloro-N-(4-(trifluoromethoxy)phenyl)quinolin-2-amine (ABX464) (100 mg/kg), Etrasimod (3 mg/kg), Ozanimod (1.5 mg/kg), ABX464+Etrasimod (100 mg/kg and 3 mg/kg) or ABX464+Ozanimod (100 mg/kg and 1.5 mg/kg). All mice were weighed daily.
At day 55, mice were anesthetized with isoflurane. Blood was collected at Tmax and mice were euthanized to harvest tissues. Cytokines concentrations plasma were determined using V-PLEX proinflammatory Panel mouse kit (Meso Scale Diagnostics).
Statistical analysis was performed on mean+/−standard deviation by one way ANOVA followed by Kruskal-Wallis's multiple comparisons test. Asterisk indicates the significance of the differences: *P<0.05, **P<0.01, ***P<0.001, ****P<0.0001.
In addition, a Welch ANOVA was performed on log transformed data for each cytokine, based on the above results.
A synergy was assessed by comparing each combination group effect versus vehicle to the sum of the corresponding compound alone groups' effects versus vehicle (Bonferroni-Holm's adjustment for multiplicity).
The following tables give the estimation and 95% confidence interval (95% CI) of the difference between Combination effect and Sum of compounds alone effects for each cytokine.

[4] = tested on: T cell transfer adoptive model of colitis; assay: T cell transfer adoptive model of colitis, body weight; assay type: in vivo, C57BL/6NRj-Rag2^tm1Ciphe/Rj mice; conditions: day 55; oral daily; ABX464 100 mg/kg, etrasimod 3 mg/kg, ozanimod 1.5 mg/kg, alone or combined
Experimental: as §1
Spleens were dissected from C57BL/6 male donor mice and placed in a PBS+2% FBS buffer. Single-cell suspension was generated with Gentle Macs Dissociator followed by mashing cells through 40-μm nylon mesh strainers. Cells were pelleted and suspended in ACK lysis buffer for 5 minutes at RT (room temperature) followed by the addition of cold PBS+2% FBS buffer. CD4+ T cells were enriched by negative selection using a CD4+ T-cell isolation kit (Miltenyi) and LS magnetic columns. The flow through was collected, and cells were centrifuged and resuspended in PBS+2% FBS buffer. Antibodies (CD45RB-PE; CD4 FITC) were added and incubated on ice for 30 minutes protected from light. Cells were washed with buffer, centrifuged, resuspended and sorted using BD FACSAria™ Fusion Flow Cytometer. […]
Weight was monitored over the period of the study (55 days), and the effect on body weight over the time period is shown in FIGS. 1A-1B. […]

[5] = tested on: active SPMS; conditions: cited from earlier work

SMILES | number of peripheral blood lymphocytes [1] | clinical benefit in phase II/phase III trials [2] | plasma level of IFNg [3] | plasma level of IL17 [3] | plasma level of IL-6 [3] | plasma level of TNFα [3] | body weight [4] | risk of disability and MS relapses [5]
CCC/N=C1\S/C(=C\c2ccc(OC[C@H](O)CO)c(Cl)c2)C(=O)N1c1ccccc1C [Ponesimod, (R)-5-[3-chloro-4-(2,3-dihydroxy-propoxy)-benz[Z]ylidene]-2-([Z]-propylimino)-3-o-tolyl-thiazolidin-4-one] | consistent, sustained, and dose-dependent reduction | clinical benefit |  |  |  |  |  | 
FC(F)(F)Oc1ccc(Nc2ccc3cccc(Cl)c3n2)cc1 [ABX464, 8-Chloro-N-(4-(trifluoromethoxy)phenyl)quinolin-2-amine] |  |  | did not reduce | reduced | did not reduce | reduced | weight gain | 
CCc1cc(/C(C)=N/OCc2ccc(C3CCCCC3)c(C(F)(F)F)c2)ccc1CN1CC(C(=O)O)C1 [Siponimod, 1-(4-[1-[(E)-4-Cyclohexyl-3-trifluoromethyl-benzyloxyimino]-ethyl]-2-ethyl-benzyl)-azetidine-3-carboxylic acid] |  |  |  |  |  |  |  | decreases
CC(C)Oc1ccc(-c2nc(-c3cccc4c3CC[C@@H]4NCCO)no2)cc1C#N [Ozanimod] |  |  | reduced | did not reduce | did not reduce | reduced |  | 
O=C(O)C[C@H]1CCc2c1[nH]c1ccc(OCc3ccc(C4CCCC4)c(C(F)(F)F)c3)cc21 [Etrasimod] |  |  | reduced | did not reduce | did not reduce | reduced | protection from weight loss | 
